Earlier results on one molecule are cited in US9833411B2, “Solid oral dosage forms” (Enteris Biopharma, Inc., priority 2015, dated 2017).

Data set [1] has as its system Methicillin-Resistant Staphylococcus aureus (MRSA), Stenotrophomonas maltophilia, Haemophilus influenzae, and Neisseria gonorrhoeae. Conditions: values reported.
For data set [2] the following is noted: known formulations.

Values after ≈ are worked out from the molar mass of the structure shown.

As for `CN(C)c1cc(NC(=O)CNC(C)(C)C)c(O)c2c1C[C@H]1C[C@H]3[C@H](N(C)C)C(O)=C(C(N)=O)C(=O)[C@@]3(O)C(O)=C1C2=O` [Tigecycline], the aqueous solubility entry is given as “approximately 300 mg/mL”. Moreover, the MIC in data set [1] is 2 mg/L (≈ 3.41 µM). For the same molecule, the “maximal oral bioavailability % (% F)” value in data set [2] is reported as “less than 5%”.
